Where two headings read alike, the source gives them in different places. Values belong to the substance of their own block, whether it stands above or below them. Ends that are not written are not given here.
How the values were obtained:
ACE [1] = conditions: cited from earlier work
Excerpt: For example, Phe-Leu was isolated from the hydrolysate of chum salmon muscle by Ono et al.. […] In addition, peptides offering antihypertensive capabilities obtained from ...

ACE [2] = conditions: cited from earlier work; remark: listed apart in the source
Excerpt: Trp-Pro-Met-Gly-Phe (636.75 Da) is one such example, obtained from the trypsin hydrolysates of Cyclina sinensis, along with Val-Val-Ser-Leu-Ser-Ile-Pro-Arg (869.53 Da) which comes from pigeon pea seeds. There have been some ACE-inhibitory peptides reported to carry out their ACE-inhibitory activity through an uncompetitive pattern, including Ala-Trp, Phe-Tyr, and Ile-Trp which are derived from wakame hydrolysates of (Undaria pinnatifida) using protease, and also Phe-Glu-Ser-As ...

[3] = target: T1, ACE (E.C. 3.4.15.1) derived from rabbit lungs (Oryctolagus cuniculus, UniProt P12822); experiment: ACE-inhibitory activity assay (HHL substrate, TNBS); type: biochemical; conditions: synthetic peptide, purity at least 95%; 5 mM HHL, pH 8.3, 37°C, 1 h, 420 nm
T1 construct: ACE (E.C. 3.4.15.1) derived from rabbit lungs; purchased Sigma Chemical Co. (St. Louis, MO, USA); host or cells: rabbit lung tissue
T1 sequence (P12822 34-1310): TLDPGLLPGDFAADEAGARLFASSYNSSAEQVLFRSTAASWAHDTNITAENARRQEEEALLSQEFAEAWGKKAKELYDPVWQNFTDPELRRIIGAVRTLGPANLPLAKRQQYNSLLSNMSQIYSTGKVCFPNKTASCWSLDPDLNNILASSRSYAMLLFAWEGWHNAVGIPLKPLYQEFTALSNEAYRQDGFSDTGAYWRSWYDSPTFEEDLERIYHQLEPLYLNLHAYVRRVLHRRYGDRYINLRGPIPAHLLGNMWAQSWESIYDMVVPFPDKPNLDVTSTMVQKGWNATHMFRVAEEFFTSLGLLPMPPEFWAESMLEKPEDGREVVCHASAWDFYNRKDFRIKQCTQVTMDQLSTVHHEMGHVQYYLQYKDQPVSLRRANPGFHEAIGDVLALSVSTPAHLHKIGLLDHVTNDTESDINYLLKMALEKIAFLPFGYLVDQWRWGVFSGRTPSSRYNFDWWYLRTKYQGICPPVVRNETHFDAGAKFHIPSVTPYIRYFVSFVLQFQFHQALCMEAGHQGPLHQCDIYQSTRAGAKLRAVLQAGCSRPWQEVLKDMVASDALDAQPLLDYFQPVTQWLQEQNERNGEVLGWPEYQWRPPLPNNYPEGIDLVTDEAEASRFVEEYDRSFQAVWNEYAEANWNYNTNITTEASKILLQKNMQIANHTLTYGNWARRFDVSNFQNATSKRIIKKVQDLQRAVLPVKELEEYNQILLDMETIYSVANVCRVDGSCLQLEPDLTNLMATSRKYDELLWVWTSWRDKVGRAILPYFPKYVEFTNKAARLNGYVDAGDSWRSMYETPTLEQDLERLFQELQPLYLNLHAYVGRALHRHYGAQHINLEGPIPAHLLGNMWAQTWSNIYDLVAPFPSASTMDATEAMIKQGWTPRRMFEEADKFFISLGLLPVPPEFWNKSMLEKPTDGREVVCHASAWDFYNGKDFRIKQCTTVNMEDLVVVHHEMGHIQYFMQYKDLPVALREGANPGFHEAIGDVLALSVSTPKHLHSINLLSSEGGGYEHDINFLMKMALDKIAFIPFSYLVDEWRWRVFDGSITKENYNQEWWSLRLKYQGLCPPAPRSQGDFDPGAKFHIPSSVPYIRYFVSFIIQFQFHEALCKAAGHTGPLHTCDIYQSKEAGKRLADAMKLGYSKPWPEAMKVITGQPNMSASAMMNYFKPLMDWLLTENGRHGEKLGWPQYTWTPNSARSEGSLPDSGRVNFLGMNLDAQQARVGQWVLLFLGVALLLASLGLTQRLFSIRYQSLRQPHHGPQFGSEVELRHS
Excerpt: (§1) The chemicals used in the study included ACE (E.C. 3.4.15.1) derived from rabbit lungs, acetonitrile, bovine serum albumin (BSA), captopril, dithiothreitol (DTT), hippuric acid, hippuryl-L-histidyl-L-leucine (HHL), o-phthaldehyde (OPA), sodium dodecyl sulfate (SDS), sodium tetraborate decahydrate, 2, 4, 6-trinitrobenzenesulfonic acid (TNBS), and Trypsin from porcine pancreas (1500 U/mg), all of which were obtained from Sigma Chemical Co. (St. Louis, MO, USA). In addition, dithiothreitol (DTT) and L-serine were purchased from Merck (Germany). All chemicals used were of analytical grade.
The ACE -inhibition test was performed following the approach of Ibrahim et al.. At the beginning of the inhibition assay, a 10 μL aliquot of the peptide sample was added to 31 μL of 50 mM potassium phosphate buffer with a pH of 8.3 containing 0.3 M NaCl in each well of the 96-well microplate, while PBS was used for the control reaction. […] The ACE -inhibitory activity was determined by measuring the absorbance at 420 nm. […] The following Eq (3) was used to calculate the percentage of ACE -inhibitory activity: ACE-inhibitoryactivity%=C−Bi−S−Bs/C−Bi×100 (3) in which the absorbance of the control is given by C (100% activity), the sample (inhibitor peptide) is given by S, the blank inhibitor (HHL alone) is given by Bi, and the blank sample (peptide alone) is represented by Bs. […]

[4] = Solubility in ultrapure water; type: physicochemical; conditions: read-out: Solubility in ultrapure water (good solubility at concentrations not exceeding the value)
[5] = target: T1, ACE (E.C. 3.4.15.1) derived from rabbit lungs; experiment: ACE inhibition kinetics (Lineweaver-Burk); type: biochemical; conditions: secondary plot 1/Vmax vs peptide concentration; 37°C; n = 3
Excerpt: as §1
ACE-inhibition kinetics were evaluated using varied HHL concentrations (0.5, 1, 3, 5, and 7 mM) to which varied FCLYELAR peptide concentrations were introduced (0.05, 0.1 and 0.2 mM). The reaction assay required that the peptide concentrations which had been dissolved in PBS undergo incubation with the ACE solution which contained the different HHL concentrations which had been dissolved in the reaction buffer. Aliquots of sodium sulfite and TNBS were subsequently added prior to 80minutes of incubation at a temperature of 37°C, allowing the level of ACE-inhibitory activity to be evaluated. […] Secondary plots were then used to determine the inhibitor constant (Ki). […]

[6] = hen egg white lysozyme (HEWL) hydrolysates

Substance: Gly-Asp-Leu-Gly-Lys-Thr-Thr-Thr-Val-Ser-Asn-Trp-Ser-Pro-Pro-Lys-Try-Lys-Asp-Thr-Pro [from tuna frame protein]
IC50 (ACE [1]; tuna frame protein): 11.3 µM

Substance: Phe-Tyr
Inhibition pattern (ACE [2]; wakame hydrolysates): uncompetitive

IC50 [3]: 31.63 ± 0.15 µM | solubility [4]: ≥ 5000 µg/mL | Ki [5]: 24.8 µM
Substance: FCLYELAR [FCLYELAR, Phe-Cys-Leu-Tyr-Glu-Leu-Ala-Arg]

Substance: FGASTRGA [from Alaska pollack hydrolysates with pepsin]
IC50 (ACE [1]; Alaska pollack hydrolysate, pepsin): 14.7 µM

Substance: MEVFVP [from flounder muscle hydrolysates]
IC50 (ACE [1]; flounder muscle hydrolysate): 79 µM

Substance: VVSLSIPR [from pigeon pea seeds]
Inhibition pattern (ACE [2]; pigeon pea seeds): competitive

Substance: MELVLR [from Ulva intestinalis]
IC50 (ACE [1]; Ulva intestinalis): 237 µM

Substance: Ala-Trp
Inhibition pattern (ACE [2]; wakame hydrolysates): uncompetitive

Substance: VSQLTR [from flounder muscle hydrolysates]
IC50 (ACE [1]; flounder muscle hydrolysate): 105 µM

Substance: Phe-Leu
IC50 (ACE [1]; chum salmon muscle hydrolysate, thermolysin): 13.6 µM

Substance: YLYEIARR [from the tryptic hydrolysate found in human plasma]
Inhibition pattern (ACE [2]; tryptic hydrolysate of human plasma): uncompetitive

Substance: Trp-Pro-Met-Gly-Phe [from trypsin hydrolysates of Cyclina sinensis]
Inhibition pattern (ACE [2]; Cyclina sinensis trypsin hydrolysates): competitive

Substance: FESNFNTQATNR [from lysozyme (HEWL) hydrolysates of hens’ eggs]
Inhibition pattern (ACE [2]; [6]): uncompetitive | Ki (ACE [2]; [6]): 82 µg/mL

Substance: FGMPLDR [from Ulva intestinalis]
IC50 (ACE [1]; Ulva intestinalis): 219 µM

Substance: Ile-Trp
Inhibition pattern (ACE [2]; wakame hydrolysates): uncompetitive

Source: PMC8412326, “A novel angiotensin I-converting enzyme inhibitory peptide derived from the trypsin hydrolysates of salmon bone proteins” (PLoS ONE, 2021)
